According to patent publication US20070020195A1, “Nasally administered appetite suppressants” (priority 2005, published 2007):
Several values for one entry are separate records, joined by “and”; a condition that tells them apart may be missing. Equal values may be shown once.

Tests used:
[1] = cited from earlier work
[2] = Dose-escalation food intake trial in obese subjects with Universal Eating Monitor (Examples 2-5); format: in vivo, human
[3] = applied topically; cited from earlier work
[4] = 70 kg adult; cited from earlier work
[5] = Double-blind crossover food intake study, intranasal lidocaine vs saline before a fried chicken meal; format: in vivo, human; settings: four subjects
Procedure: Three males and one female between 23 and 60 years of age with BMI's less than 25 kg/m2 participated in a study of food intake. The subjects presented to the food intake laboratory at noon after an overnight fast except for water from 9 pm the prior night on two occasions a week apart. They had 10 mg (0.5 cc) of lidocaine or 0.5 cc normal saline administered in each nostril 20 minutes before presentation of a meal consisting of fried chicken pieces and water. They were allowed to eat and drink as much or as little as they wished over a 20-minute period, and there were more chicken pieces than they could reasonably be expected to eat at one sitting. The order of the lidocaine and saline was balanced and the study was performed in a double-blind fashion.
The four subjects consumed 15%, 11%, 27% and 33% less on the lidocaine week compared to the placebo week. […] Sibutramine, an obesity drug, gives an 8% weight loss at 6 months and causes a 12% decrease in food intake.

In the case of `CC(C)CC(N(C)C)C1(c2ccc(Cl)cc2)CCC1` (stereo not shown) [Sibutramine], the weight loss ([1]; at 6 months) is listed as 8% and the “decrease in food intake” value ([1]; in vivo) is listed as 12%.
With `Cn1c(=O)c2c(ncn2C)n(C)c1=O` [caffeine] the “effect on energy expenditure” value ([2]; about 200 mg caffeine orally or nasally added to lidocaine, Example 4) was “increasing energy expenditure”.
For `CCN(CC)CC(=O)Nc1c(C)cccc1C` [lidocaine], the duration of anesthesia [3] is given as 30 to 45 min, the “time to peak anesthesia” value [3] is given as 2 to 5 min and the “food consumption with escalating doses” value ([2]; 2.5, 10 and 25 mg lidocaine per nostril vs saline, BMI 30-40, Example 2) is given as “reduction in food consumption”. The “maximum safe dosage for topical anesthetic” value [4] was 500 mg, the “reduction in food consumed on lidocaine week compared to placebo week, individual subjects” value ([5]; 10 mg (0.5 cc) lidocaine in each nostril 20 minutes before meal, BMI less than 25 kg/m2) was 15% and 11% and 27% and 33% and the “overall reduction in food intake” value ([5]; 10 mg lidocaine in each nostril 20 minutes before meal, p<0.02) was 21.5%+10.2%.
In the case of leptin, the anorexiant effect ([2]; about 20 mg per day leptin added to lidocaine, Example 5) is reported as “further anorexiant effect”.
